We go through 25 compounds from article PMC9182104 (Molecules, 2022).

Structures are written as SMILES. Where “and” joins values, the source holds several entries; their conditions need not be identical. Equal entries are not always repeated. Where two headings read alike, the source gives them in different places.

One data set addresses PDE5A (Homo sapiens, UniProt O76074). The data set can be described thus: Enzymatic assay of PDE5A (3H-cGMP substrate). The class given is biochemical. The settings on record: for inhibition at 0.1 µM / inhibition at 0.5 µM: 0.25 h; for IC50: PDE5, mean ± SD of three independent experiments.
Data set [1] in a line: Rat liver microsomal stability. Type of data set: in vitro ADME. As to conditions: rat liver microsomes, compound 0.5 μM; read-out: T1/2 in RLM. (In general: Microsomes from liver hold many membrane-bound enzymes, among them those of drug oxidation.)
For data set [2] the following is noted: cited from earlier work.
Data set [3] relates to fibrosis markers α-SMA and FN. Further details: method as in earlier work. The settings on record: rat, bleomycin-induced pulmonary fibrosis; cited from earlier work.
[4] abbreviates: PDE5, compound at 0.1 μM, read-out: Inhibition Ratio (%) 0.1 μM.
Setting [5] is: PDE5, compound at 0.5 μM, read-out: Inhibition Ratio (%) 0.5 μM.

For orientation: IC50 means the concentration that gives 50% inhibition. Lower therefore signals inhibition by little substance. Turning to `OCCN(CCO)c1nc(N2CCC(F)(F)CC2)c2nc(N(CCO)CCO)nc(N3CCC(F)(F)CC3)c2n1` [4d, 2,2′,2″,2‴-((4,8-bis(4,4-difluoropiperidin-1-yl)pyrimido[5,4-d]pyrimidine-2,6-diyl)bis(azanetriyl))tetrakis(ethan-1-ol)], the inhibition at 0.1 µM at PDE5A (setting [4]) is 41%. Also, the inhibition at 0.5 µM at PDE5A (setting [5]) amounted to 72%. Besides, it took 362 ± 81 nM to reach half-maximal inhibition against PDE5A (IC50). Also, the half-life at 0.5 μM in data set [1] came to 19 min.
In the same order, the values of `OCCN(CCO)c1nc(N2CCC(F)CC2)c2nc(N(CCO)CCO)nc(N3CCC(F)CC3)c2n1` [4c, 2,2′,2″,2‴-((4,8-bis(4-fluoropiperidin-1-yl)pyrimido[5,4-d]pyrimidine-2,6-diyl)bis(azanetriyl))tetrakis(ethan-1-ol)] are 31%, 62%, 343 ± 18 nM and 44 min.
`OCCN(CCO)c1nc(N2CCSCC2)c2nc(N(CCO)CCO)nc(N3CCSCC3)c2n1` [4b, 2,2′,2″,2‴-((4,8-dithiomorpholinopyrimido[5,4-d]pyrimidine-2,6-diyl)bis(azanetriyl))tetrakis(ethan-1-ol)]: the inhibition at 0.1 µM on PDE5A (setting [4]) is 53%. On PDE5A (setting [5]), the inhibition at 0.5 µM was determined as 75%. Moreover, on PDE5A, the half-maximal inhibitory concentration (IC50) was 64 nM and 113 nM. Further, in data set [1], the half-life at 0.5 μM was 7 min.
As to `OCCN(CCO)c1nc(N2CCCC2)c2nc(N(CCO)CCO)nc(N3CCCC3)c2n1` [4e, 2,2′,2″,2‴-((4,8-di(pyrrolidin-1-yl)pyrimido[5,4-d]pyrimidine-2,6-diyl)bis(azanetriyl))tetrakis(ethan-1-ol)], the inhibition at 0.1 µM at PDE5A (setting [4]) came out at 7%. The inhibition at 0.5 µM at PDE5A (setting [5]) was under 50%.
For `C[C@H]1CCCN1c1nc(N(CCO)CCO)nc2c(N3CCC[C@@H]3C)nc(N(CCO)CCO)nc12` [(R)-4f, 2,2′,2″,2‴-((4,8-bis((S)-2-methylpyrrolidin-1-yl)pyrimido[5,4-d]pyrimidine-2,6-diyl)bis(azanetriyl))tetrakis(ethan-1-ol)], the “Inhibition Ratio (%) 0.1 μM” value at PDE5A (PDE5, compound at 0.1 μM) was found to be 27%. Further, at PDE5A (PDE5, compound at 0.5 μM), the “Inhibition Ratio (%) 0.5 μM” value was determined as 44%.
As to `C[C@H]1CCCN1c1nc(N(CCO)CCO)nc2c(N3CCC[C@@H]3C)nc(N(CCO)CCO)nc12` [(S)-4f, 2,2′,2″,2‴-((4,8-bis((S)-2-methylpyrrolidin-1-yl)pyrimido[5,4-d]pyrimidine-2,6-diyl)bis(azanetriyl))tetrakis(ethan-1-ol)], the inhibition at 0.1 µM on PDE5A (setting [4]) turned out to be 16%. In addition, at PDE5A (setting [5]), the inhibition at 0.5 µM stood at 42%.
As for `OCCN(CCO)c1nc(N2CC[C@H](F)C2)c2nc(N(CCO)CCO)nc(N3CCSC3)c2n1` [9b, (S)-2,2′,2″,2‴-((4-(3-fluoropyrrolidin-1-yl)-8-(thiazolidin-3-yl)pyrimido[5,4-d]pyrimidine-2,6-diyl)bis(azanetriyl))tetrakis(ethan-1-ol)], the inhibition at 0.1 µM at PDE5A (setting [4]) was 33%. Besides, at PDE5A (setting [5]), the inhibition at 0.5 µM is 81%. The IC50 at PDE5A was found to be 94 ± 9 nM. Further, the half-life at 0.5 μM in data set [1] is 10 min.
In the same order, the values of `OCCN(CCO)c1nc(N2CCSC2)c2nc(N(CCO)CCO)nc(N3CCSCC3)c2n1` [9a, 2,2′,2″,2‴-((4-(thiazolidin-3-yl)-8-thiomorpholinopyrimido[5,4-d]pyrimidine-2,6-diyl)bis(azanetriyl))tetrakis(ethan-1-ol)] are 45%, 91%, 100 ± 1 nM and 4 min.
Consider `OCCN(CCO)c1nc(N2CC[C@@H](F)C2)c2nc(N(CCO)CCO)nc(N3CC[C@@H](F)C3)c2n1` [(R)-4h, 2,2′,2″,2‴-((4,8-bis((R)-3-fluoropyrrolidin-1-yl)pyrimido[5,4-d]pyrimidine-2,6-diyl)bis(azanetriyl))tetrakis(ethan-1-ol)], for which the inhibition at 0.1 µM at PDE5A (setting [4]) worked out at 27%. Also, the inhibition at 0.5 µM on PDE5A (setting [5]) stood at 44%.
On to `OC[C@@H]1CCCN(c2nc(N3CCSC3)c3nc(N4CCC[C@@H](CO)C4)nc(N4CCSC4)c3n2)C1` [(R)-5b, ((3R,3′R)-(4,8-di(thiazolidin-3-yl)pyrimido[5,4-d]pyrimidine-2,6-diyl)bis(piperidine-1,3-diyl))dimethanol], for which the IC50 on PDE5A worked out at 109 ± 20 nM.
With `OC[C@H]1CCCN(c2nc(N3CCSC3)c3nc(N4CCC[C@H](CO)C4)nc(N4CCSC4)c3n2)C1` [(S)-5b, ((3S,3′S)-(4,8-di(thiazolidin-3-yl)pyrimido[5,4-d]pyrimidine-2,6-diyl)bis(piperidine-1,3-diyl))dimethanol], the inhibition at 0.1 µM on PDE5A (setting [4]) came out at 13%. At PDE5A (setting [5]), the inhibition at 0.5 µM was found to be 34%.
In the same order, the values of `OCC1CCCN(c2nc(N3CCC(F)CC3)c3nc(N4CCCC(CO)C4)nc(N4CCC(F)CC4)c3n2)C1` (stereo not shown) [6b, ((4,8-bis(4-fluoropiperidin-1-yl)pyrimido[5,4-d]pyrimidine-2,6-diyl)bis(piperidine-1,3-diyl))dimethanol] are 0% and 7%.
For `OC1CCN(c2nc(N3CCSC3)c3nc(N4CCC(O)CC4)nc(N4CCSC4)c3n2)CC1` [5a, 1,1′-(4,8-di(thiazolidin-3-yl)pyrimido[5,4-d]pyrimidine-2,6-diyl)bis(piperidin-4-ol)] the same measures were 29% and 32%.
For the compound `OCCN(CCO)c1nc(N2CCOCC2)c2nc(N(CCO)CCO)nc(N3CCOCC3)c2n1` [4a, 2,2′,2″,2‴-((4,8-dimorpholinopyrimido[5,4-d]pyrimidine-2,6-diyl)bis(azanetriyl))tetrakis(ethan-1-ol)], the inhibition at 0.1 µM at PDE5A (setting [4]) came out at 0%. The inhibition at 0.5 µM at PDE5A (setting [5]) is 40%. Also, on PDE5A, the IC50 was over 500 nM.
For `OCCN(CCO)c1nc(N2CCSC2)c2nc(N(CCO)CCO)nc(N3CCSC3)c2n1` [4g, 2,2′,2″,2‴-((4,8-di(thiazolidin-3-yl)pyrimido[5,4-d]pyrimidine-2,6-diyl)bis(azanetriyl))tetrakis(ethan-1-ol)], the inhibition at 0.1 µM on PDE5A (setting [4]) stood at 60%. Further, the inhibition at 0.5 µM at PDE5A (setting [5]) is 93%. Besides, at PDE5A, the IC50 was 113 nM and 64 nM. In data set [1], the half-life at 0.5 μM stood at 5 min.
For the compound `OCCN(CCO)c1nc(N2CCCCC2)c2nc(N(CCO)CCO)nc(N3CCCCC3)c2n1` [DIP, Dipyridamole, reference compound], on PDE5A (read-out: Inhibition Ratio (%) 0.1 μM, PDE5, compound at 0.1 μM), the inhibition at 0.1 µM was 17%. On PDE5A (read-out: Inhibition Ratio (%) 0.5 μM, PDE5, compound at 0.5 μM), the inhibition at 0.5 µM was found to be 84%. Also, the solubility in water result in data set [2] is “practically insoluble in water”. Besides, in data set [3], the “levels of fibrosis markers α-SMA and FN” value is recorded as “significantly decreased”.
In the case of `O[C@H]1CCN(c2nc(N3CCSC3)c3nc(N4CC[C@H](O)C4)nc(N4CCSC4)c3n2)C1` [(S)-5c, (3S,3′S)-1,1′-(4,8-di(thiazolidin-3-yl)pyrimido[5,4-d]pyrimidine-2,6-diyl)bis(pyrrolidin-3-ol)], the inhibition at 0.1 µM on PDE5A (setting [4]) was 36%. Besides, at PDE5A (setting [5]), the inhibition at 0.5 µM worked out at 49%.
For `CC1CCCN1c1nc(N(CCO)CCO)nc2c(N3CCCC3C)nc(N(CCO)CCO)nc12` (stereo not shown) [4f, 2,2′,2″,2‴-((4,8-bis(2-methylpyrrolidin-1-yl)pyrimido[5,4-d]pyrimidine-2,6-diyl)bis(azanetriyl))tetrakis(ethan-1-ol)], the inhibition at 0.1 µM at PDE5A (setting [4]) was found to be 14%. Besides, the inhibition at 0.5 µM on PDE5A (setting [5]) is 60%. The IC50 against PDE5A was 478 ± 3 nM.
For `OCC1CCCN(c2nc(N3CCSC3)c3nc(N4CCCC(CO)C4)nc(N4CCSC4)c3n2)C1` (stereo not shown) [5b, ((4,8-di(thiazolidin-3-yl)pyrimido[5,4-d]pyrimidine-2,6-diyl)bis(piperidine-1,3-diyl))dimethanol] the same measures were 52%, 79% and 167 ± 41 nM.
On to `O[C@@H]1CCCN(c2nc(N3CCC(F)CC3)c3nc(N4CCC[C@@H](O)C4)nc(N4CCC(F)CC4)c3n2)C1` [(R)-6a, (3R,3′R)-1,1′-(4,8-bis(4-fluoropiperidin-1-yl)pyrimido[5,4-d]pyrimidine-2,6-diyl)bis(piperidin-3-ol)], for which the inhibition at 0.1 µM on PDE5A (setting [4]) is 8%. The inhibition at 0.5 µM on PDE5A (setting [5]) is 36%.
`OCCN(CCO)c1nc(N2CCC(F)(F)C2)c2nc(N(CCO)CCO)nc(N3CCC(F)(F)C3)c2n1` [4i, 2,2′,2″,2‴-((4,8-bis(3,3-difluoropyrrolidin-1-yl)pyrimido[5,4-d]pyrimidine-2,6-diyl)bis(azanetriyl))tetrakis(ethan-1-ol)]: the inhibition at 0.1 µM on PDE5A (setting [4]) worked out at 24%. For the same compound, the inhibition at 0.5 µM on PDE5A (setting [5]) is 61%. The same compound gave an IC50 at PDE5A of 353 ± 57 nM.
As to `O[C@@H]1CCN(c2nc(N3CCSC3)c3nc(N4CC[C@@H](O)C4)nc(N4CCSC4)c3n2)C1` [(R)-5c, (3R,3′R)-1,1′-(4,8-di(thiazolidin-3-yl)pyrimido[5,4-d]pyrimidine-2,6-diyl)bis(pyrrolidin-3-ol)], the inhibition at 0.1 µM at PDE5A (setting [4]) worked out at 45%. The inhibition at 0.5 µM on PDE5A (setting [5]) stood at 74%. For the same compound, it took 198 ± 45 nM to reach half-maximal inhibition on PDE5A (IC50).
For `OC1CCCN(c2nc(N3CCC(F)CC3)c3nc(N4CCCC(O)C4)nc(N4CCC(F)CC4)c3n2)C1` (stereo not shown) [6a, 1,1′-(4,8-bis(4-fluoropiperidin-1-yl)pyrimido[5,4-d]pyrimidine-2,6-diyl)bis(piperidin-3-ol)], on PDE5A (setting [4]), the inhibition at 0.1 µM was determined as 7%. The inhibition at 0.5 µM on PDE5A (setting [5]) amounted to 48%.
In the same order, the values of `OC1CCN(c2nc(N3CCC(F)CC3)c3nc(N4CCC(O)C4)nc(N4CCC(F)CC4)c3n2)C1` (stereo not shown) [6c, 1,1′-(4,8-bis(4-fluoropiperidin-1-yl)pyrimido[5,4-d]pyrimidine-2,6-diyl)bis(pyrrolidin-3-ol)] are 5% and 20%.
For the compound `OCCN(CCO)c1nc(N2CC[C@H](F)C2)c2nc(N(CCO)CCO)nc(N3CC[C@H](F)C3)c2n1` [(S)-4h, 2,2′,2″,2‴-((4,8-bis((S)-3-fluoropyrrolidin-1-yl)pyrimido[5,4-d]pyrimidine-2,6-diyl)bis(azanetriyl))tetrakis(ethan-1-ol)], the inhibition at 0.1 µM on PDE5A (setting [4]) was 34%. Moreover, the inhibition at 0.5 µM on PDE5A (setting [5]) worked out at 55%. Moreover, the IC50 at PDE5A stood at 332 ± 56 nM. Also, the half-life at 0.5 μM in data set [1] was 67 min.
